Measurements from patent US20130281506A1, “COMBINATION OF A NON-STEROIDAL ANTI-INFLAMMATORY DRUG WITH AN ANTI-HISTAMINIC DRUG INTENDED FOR OPHTHALMIC USE” (ALLERGAN, INC., priority 2012, published 2013).
Structures can show the parent of a compound that is named as a salt.

Tests used:
[1] = system: seasonal allergic conjunctivitis; assay: Randomized, multi-centric, open label clinical study: efficacy on signs and symptoms (itching, hyperemia, chemosis, mucous discharge); format: in vivo, human; conditions: for mean chemosis score / mean cilliary hyperemia score / mean conjunctival hyperemia score / mean episcleral hyperemia score / mean itching score: score 0-4
Source text: A randomized, multi-centric geographically, open label study to compare the safety and efficacy of the combination of olopatadine hydrochloride 0.1% and ketorolac tromethamine 0.4% w/v ophthalmic solution with olopatadine hydrochloride 0.1% w/v used twice daily for three weeks in adult patients with seasonal allergic conjunctivitis, was completed. The primary objective of this randomized, multi-centric geographically diverse study was to compare the safety and efficacy of the combination of olopatadine and ketorolac with olopatadine in seasonal allergic conjunctivitis. A combination of olopatadine hydrochloride 0.1% w/v and ketorolac tromethamine 0.4% w/v was compared with olopatadine hydrochloride 0.1% w/v alone in the treatment of patients with seasonal allergic conjunctivitis. The test drug was the combination of olopatadine hydrochloride with ketorolac tromethamine compared to olopatadine hydrochloride 0.1% w/v, as three commercially available brands on the market: Winolap®, Opat® and Olo®. These three commercially available brands, as the comparator drug, were provided to the investigators. Any of the three brands of the comparator drug were prescribed by the investigator to the patients per their choice of availability and cost. The patients administered one drop twice daily in each eye for twenty-one days during three weeks. The patients received study medications as well as comparator drug for the entire period. There were five scheduled visits, with screening periods of thirty days and a treatment period of twenty-one days as per protocol. At the end of each visit physicians also rated tolerance and the patient rated acceptability. The efficacy parameters like itching, hyperemia (cilliary, conjunctival, episcleral), chemosis and mucus discharge were compared between groups and scored. The efficacy of the medications was evaluated by comparing the reduction in efficacy parameters, signs and symptoms of allergic conjunctivitis between the treatment groups, based on the twenty-one day period. The efficacy of the study medications was evaluated by comparing the reduction in signs and symptoms of allergic conjunctivitis between the treatment groups. Reduction in the signs and symptoms of allergic conjunctivitis was based on evaluation of efficacy parameters till the end of twenty-one days. For the improvement of allergic conjunctivitis, symptoms like itching, hyperemia, chemosis and mucous discharge were used. The symptoms of allergic conjunctivitis like itching, hyperemia and chemosis were scored as 0, 1, 2, 3 and 4 and mucous discharge was graded as absent or present. [table] Interpretation: •Minimum score: 0; •Maximum score: 4; the higher the score the more severe will be the symptoms of allergic conjunctivitis. In the report, each symptom is graded based on the severity. Efficacy evaluation has been done for first 100 completed cases. The efficacy parameters like itching, hyperemia (cilliary, conjunctival, episcleral), chemosis and mucus discharge were compared between groups.

[2] = system: adult patients with seasonal allergic conjunctivitis; assay: Same clinical study: safety, tolerability and acceptability; format: in vivo, human; conditions: mild transient, no treatment required; observed immediately after instillation of eye drop
Source text: The patients administered one drop twice daily in each eye for twenty-one days during three weeks. The patients received study medications as well as comparator drug for the entire period. There were five scheduled visits, with screening periods of thirty days and a treatment period of twenty-one days as per protocol. At the end of each visit physicians also rated tolerance and the patient rated acceptability.
At the end of the each visit physicians rated tolerance as Excellent (No adverse drug reactions), Good (Mild adverse reaction not requiring other treatment or necessitating drug withdrawal), Fair (Adverse reactions requiring treatment without hospitalization or necessitating drug withdrawal and Poor (Severe or serious reaction requiring hospitalization and withdrawal of drug) and the patient rated acceptability as Good (No untoward incidence), Fair (Mild adverse reaction not interfering day to day activities) and Poor (Adverse reactions affecting regular day to day activities).
The safety of the combination of olopatadine-ketorolac was compared with olopatadin. The safety assessment parameters included the number of patients having adverse events, the types of adverse events, and the number of unexpected, severe or serious adverse events in the two arms.

[3] = system: seasonal allergic conjunctivitis and rhinoconjunctivitis; conditions: fourth week of treatment; p=0.03; cited from earlier work
[4] = visit 3, no statistically significant difference

## CN(C)CC/C=C1/c2ccccc2COc2ccc(CC(=O)O)cc21 [olopatadine, olopatadine hydrochloride]
[1]; baseline
  mean chemosis score: 1.5±0.99
  mean cilliary hyperemia score: 0.94±0.91
  mean conjunctival hyperemia score: 2.28±0.83
  mean episcleral hyperemia score: 0.84±0.79
[1]; baseline, one drop twice daily in each eye
  mean itching score: 3±0.67
[1]; final scheduled visit
  complaints of mucus discharge: all the enrolled patients were free from the complaints of mucus discharge
[1]; visit 2
  mean chemosis score: 1.46±0.95
  mean cilliary hyperemia score: 0.94±0.91
  mean conjunctival hyperemia score: 2.2±0.84
  mean episcleral hyperemia score: 0.84±0.79
[1]; visit 3 (first week), p=0.012 between groups
  mean itching score: 2±0.60
[1]; visit 3
  mean cilliary hyperemia score: 0.62±0.66
[1]; [4]
  mean chemosis score: 0.92±0.72
  mean conjunctival hyperemia score: 1.38±0.86
[1]; visit 3, p=0.43 printed
  mean episcleral hyperemia score: 0.62±0.63
[1]; visit 4 (second week), p=0.009 between groups
  mean itching score: 1.28±0.67
[1]; visit 4 (second week), p=0.02 between groups
  mean conjunctival hyperemia score: 0.8±0.60
[1]; visit 4 (second week), p=0.029 between groups
  mean chemosis score: 0.54±0.57
[1]; visit 4
  mean episcleral hyperemia score: 0.36±0.56
[1]; visit 4, p=0.06 between groups
  mean cilliary hyperemia score: 0.28±0.49
[1]; visit 5 (third week), p=0.00004 between groups
  mean chemosis score: 0.3±0.52
[1]; visit 5 (third week), p=0.00009 between groups
  mean itching score: 0.78±0.58
[1]; visit 5 (third week), p=0.0003 between groups
  mean conjunctival hyperemia score: 0.5±0.54
[1]; visit 5
  mean episcleral hyperemia score: 0.18±0.38
[1]; visit 5, p=0.52 between groups
  mean cilliary hyperemia score: 0.08±0.34
[2]
  number of patients experiencing an adverse event: three
[3]
  chemosis compared to placebo: significant decrease
